In patent US11078170B2 (Assembly Biosciences, Inc., priority 2017, dated 2021):

System: HBV viral production from HepAD38 cells
Assay: Activity of test compounds on viral production from HepAD38 cells (viral load by qPCR of HBV core sequence in supernatant)
Format: cell-based
Conditions: Hepatitis B virus, 120 h, 5 days incubation, HBV DNA in supernatant by qPCR, top concentration 10 μM, read-out: Viral Load EC50 Activity range
Procedure: Assay Measuring Activity of Test Compounds on Viral Production from HepAD38 Cells
HepAD38 cells grown in a T-150 flask (Corning, cat #: 430825) with Growth Medium (DMEM/F12 (1:1) (Hyclone, cat #: SH30023.02), 1×Pen/Strep (Invitrogen, cat #: 15140-122), 10% FBS (Tissue Culture Biologics, cat #: 101), 250 μg/mL G418 (Alfa Aesar, cat #: J62671), 1 μg/mL Tetracycline (Teknova, cat #: T3320)) were detached with 0.25% trypsin-EDTA (Invitrogen, cat #: 25200-056). Tetracycline-free treatment medium (15 mL DMEM/F12 (1:1) 1× Pen/step, with 2% FBS, Tet-system approved (Clontech, cat #: 631106) were then added to mix, transferred into a 50 ml conical tube (Falcon, cat #: 21008-918) and spun at 1300 rpm for 5 min. Pelleted cells were then re-suspended/washed with 50 mL of 1×DPBS (Invitrogen, cat #: 14190-136) 2 times and 50 mL treatment medium twice. HepAD38 cells were then re-suspended with 10 mL of treatment medium, syringed and counted. Wells of 96-well clear bottom TC plate (Corning, cat #: 3904) were seeded at 50,000 cells/well in 180 μL of treatment medium, and 20 μL of either 10% DMSO (Sigma, cat #: D4540) as controls or a 10× solution of test compounds in 10% DMSO in treatment media was added for a final compound concentration starting at 10 μM, and plates were incubated in 5% CO2 incubator at 37° C. for 5 days.
Subsequently viral load production was assayed by quantitative PCR (qPCR) of the HBV core sequence. PCR reaction mixture containing forward primers HBV-f 5′-CTGTGCCTTGGGTGGCTTT-3′, which is SEQ ID NO 1, (IDT DNA), Reverse primers HBV-r 5′-[…]-3′, which is SEQ ID NO 2 (IDT DNA), Fluorescent TaqMan™ Probes HBV-probe 5′-FAM/AGCTCCAAA/ZEN/[…]/3IABkFQ-3′ (IDT DNA), which is SEQ ID NO 3, 10 μL/well of PerfeCTa® qPCR ToughMix® (Quanta Biosciences, Cat #: 95114-05K), and 6 µL/well of DEPC water (Alfa Aesar, cat #: J62087) was prepared. Four μL of supernatant was added to 16 μL of the reaction mixture in a qPCR plate (Applied Biosytems, Cat #: 4309849), sealed with a film (Applied Biosystems, Cat #: 4311971), centrifuged for a few seconds, and subsequently run on an Applied Biosystems VIIA7. The PCR mixture was incubated at 45° C. for 5 min, then 95° C. for 10 min, followed by 40 cycles of 10 seconds at 95° C. and 20 seconds at 60° C. Viral load was quantified against known HBV DNA standards by using ViiA™ 7 Software. Viral load in the supernatant from wells with treated cells were compared against viral load in supernatant from DMSO control wells (≥3 per plate). Cell viability assay was performed with CellTiter-Glo Luminescent Cell Viability Assay (Promega, cat #: G7573) with modification. Mixed appropriate amount of CellTiter-Glo (CTG) 1×DPBS in a 1:1 ratio, added 100 uL of the mixture to each well followed completely removal of all supernatant in each well without touching cell surface. Incubated the plate at room temperature for 10 min on an orbital shaker, and then read the plate with a plate reader (TECAN M1000 or Envision). EC50 or CC50 values were calculated through curve-fitting of the four-parameter nonlinear-logistic-regression model (GraphPad Prism or Dotmatics). CC50 values were all >10 μM.

Structure (SMILES) | EC50
N#CCN1C(C(=O)Nc2ccc(F)c(Cl)c2)CC(c2nccs2)NS1(=O)=O (racemic) [HBV-CSU-093, Cis-N-(3-Chloro-4-fluorophenyl)-2-(cyanomethyl)-5-(thiazol-2-yl)-1,2,6-thiadiazinane-3-carboxamide 1,1-dioxide] | > 5000 nM
O=C(Nc1ccc(F)c(Cl)c1)C1CC(c2nccs2)NS(=O)(=O)N1CCOCc1ccccc1 (racemic) [HBV-CSU-095, Cis-2-(2-(benzyloxy)ethyl)-N-(3-chloro-4-fluorophenyl)-5-(thiazol-2-yl)-1,2,6-thiadiazinane-3-carboxamide 1,1-dioxide] | 1000 to 5000 nM
CSCCN1C(C(=O)Nc2ccc(F)c(Cl)c2)CC(c2nccs2)NS1(=O)=O (racemic) [HBV-CSU-109, Cis-N-(3-Chloro-4-fluorophenyl)-2-(2-(methylthio)ethyl)-5-(thiazol-2-yl)-1,2,6-thiadiazinane-3-carboxamide 1,1-dioxide] | < 1000 nM
CN1[C@H](C(=O)Nc2ccc(F)c(Cl)c2)C[C@@H](c2ccc(Br)s2)NS1(=O)=O (racemic) [HBV-CSU-114-Trans (Rac), Trans-5-(5-bromothiophen-2-yl)-N-(3-chloro-4-fluorophenyl)-2-methyl-1,2,6-thiadiazinane-3-carboxamide 1,1-dioxide] | > 5000 nM
Cc1ccc(C2CC(C(=O)Nc3ccc(F)c(Cl)c3)N(C)S(=O)(=O)N2)s1 (racemic) [HBV-CSU-115, Cis-N-(3-chloro-4-fluorophenyl)-2-methyl-5-(5-methylthiophen-2-yl)-1,2,6-thiadiazinane-3-carboxamide 1,1-dioxide] | < 1000 nM
CN1C(C(=O)Nc2ccc(F)c(Cl)c2)CC(c2nnc(-c3ccccc3)s2)NS1(=O)=O (racemic) [HBV-CSU-120, Cis-N-(3-Chloro-4-fluorophenyl)-2-methyl-5-(5-phenyl-1,3,4-thiadiazol-2-yl)-1,2,6-thiadiazinane-3-carboxamide 1,1-dioxide] | < 1000 nM
CN1C(C(=O)Nc2ccc(F)c(Cl)c2)CC(c2ncc(Br)s2)NS1(=O)=O (racemic) [HBV-CSU-122, Cis-5-(5-bromothiazol-2-yl)-N-(3-chloro-4-fluorophenyl)-2-methyl-1,2,6-thiadiazinane-3-carboxamide 1,1-dioxide] | < 1000 nM
CCOCCN1C(C(=O)Nc2ccc(F)c(Cl)c2)CC(c2nccs2)NS1(=O)=O (racemic) [HBV-CSU-142, Cis-N-(3-Chloro-4-fluorophenyl)-2-(2-ethoxyethyl)-5-(thiazol-2-yl)-1,2,6-thiadiazinane-3-carboxamide 1,1-dioxide] | < 1000 nM
Cc1csc(C2CC(C(=O)Nc3ccc(F)c(Cl)c3)N(C)S(=O)(=O)N2)c1 (racemic) [HBV-CSU-147, Cis-N-(3-chloro-4-fluorophenyl)-2-methyl-5-(4-methylthiophen-2-yl)-1,2,6-thiadiazinane-3-carboxamide 1,1-dioxide] | < 1000 nM
CN1C(C(=O)Nc2ccc(F)c(Cl)c2)CC(c2nc(Br)cs2)NS1(=O)=O (racemic) [HBV-CSU-150, Cis-5-(4-Bromothiazol-2-yl)-N-(3-chloro-4-fluorophenyl)-2-methyl-1,2,6-thiadiazinane-3-carboxamide 1,1-dioxide] | < 1000 nM
CN1C(C(=O)Nc2ccc(F)c(Cl)c2)CC(c2ccc(-c3ccc(C#N)c(F)c3)s2)NS1(=O)=O (racemic) [HBV-CSU-156, Cis-N-(3-chloro-4-fluorophenyl)-5-(5-(4-cyano-3-fluorophenyl)thiophen-2-yl)-2-methyl-1,2,6-thiadiazinane-3-carboxamide 1,1-dioxide] | < 1000 nM
CN1C(C(=O)Nc2ccc(F)c(Cl)c2)CC(c2ccc(-c3ccc(C(F)(F)F)nc3)s2)NS1(=O)=O (racemic) [HBV-CSU-158, Cis-N-(3-chloro-4-fluorophenyl)-2-methyl-5-(5-(6-(trifluoromethyl)pyridin-3-yl)thiophen-2-yl)-1,2,6-thiadiazinane-3-carboxamide 1,1-dioxide] | 1000 to 5000 nM
CN1C(C(=O)Nc2ccc(F)c(Cl)c2)CC(c2ccc(-c3cccnc3)s2)NS1(=O)=O (racemic) [HBV-CSU-159, Cis-N-(3-chloro-4-fluorophenyl)-2-methyl-5-(5-(pyridin-3-yl)thiophen-2-yl)-1,2,6-thiadiazinane-3-carboxamide 1,1-dioxide] | < 1000 nM
CN1C(C(=O)Nc2ccc(F)c(Cl)c2)CC(c2ccc(-c3ccccn3)s2)NS1(=O)=O (racemic) [HBV-CSU-160, Cis-N-(3-chloro-4-fluorophenyl)-2-methyl-5-(5-(pyridin-2-yl)thiophen-2-yl)-1,2,6-thiadiazinane-3-carboxamide 1,1-dioxide] | < 1000 nM
CN1C(C(=O)Nc2ccc(F)c(Cl)c2)CC(c2ccc(-c3cnn(C)c3)s2)NS1(=O)=O (racemic) [HBV-CSU-161, Cis-N-(3-chloro-4-fluorophenyl)-2-methyl-5-(5-(1-methyl-1H-pyrazol-4-yl)thiophen-2-yl)-1,2,6-thiadiazinane-3-carboxamide 1,1-dioxide] | < 1000 nM
CN1[C@H](C(=O)Nc2ccc(F)c(Cl)c2)C[C@@H](c2ccc(-c3cnn(C)c3)s2)NS1(=O)=O (racemic) [HBV-CSU-161-Trans (Rac), Trans-N-(3-chloro-4-fluorophenyl)-2-methyl-5-(5-(1-methyl-1H-pyrazol-4-yl)thiophen-2-yl)-1,2,6-thiadiazinane-3-carboxamide 1,1-dioxide] | 1000 to 5000 nM
CN1C(C(=O)Nc2ccc(F)c(Cl)c2)CC(c2ccc(-c3ccc(NS(C)(=O)=O)cc3)s2)NS1(=O)=O (racemic) [HBV-CSU-163, Cis-N-(3-chloro-4-fluorophenyl)-2-methyl-5-(5-(4-(methylsulfonamido)phenyl)thiophen-2-yl)-1,2,6-thiadiazinane-3-carboxamide 1,1-dioxide] | < 1000 nM
CN1C(C(=O)Nc2ccc(F)c(Cl)c2)CC(c2cc(-c3ccc(C#N)c(F)c3)cs2)NS1(=O)=O (racemic) [HBV-CSU-164, Cis-N-(3-chloro-4-fluorophenyl)-5-(4-(4-cyano-3-fluorophenyl)thiophen-2-yl)-2-methyl-1,2,6-thiadiazinane-3-carboxamide 1,1-dioxide] | < 1000 nM
CN1C(C(=O)Nc2ccc(F)c(Cl)c2)CC(c2cc(-c3ccc(Br)c(F)c3)cs2)NS1(=O)=O (racemic) [HBV-CSU-165, Cis-N-(3-chloro-4-fluorophenyl)-5-(4-(4-bromo-3-fluorophenyl)thiophen-2-yl)-2-methyl-1,2,6-thiadiazinane-3-carboxamide 1,1-dioxide] | 1000 to 5000 nM
CN1C(C(=O)Nc2ccc(F)c(Cl)c2)CC(c2cc(-c3ccc(C(F)(F)F)nc3)cs2)NS1(=O)=O (racemic) [HBV-CSU-166, Cis-N-(3-chloro-4-fluorophenyl)-2-methyl-5-(4-(6-(trifluoromethyl)pyridin-3-yl)thiophen-2-yl)-1,2,6-thiadiazinane-3-carboxamide 1,1-dioxide] | < 1000 nM
CN1C(C(=O)Nc2ccc(F)c(Cl)c2)CC(c2cc(-c3ccccn3)cs2)NS1(=O)=O (racemic) [HBV-CSU-168, Cis-N-(3-chloro-4-fluorophenyl)-2-methyl-5-(4-(pyridin-2-yl)thiophen-2-yl)-1,2,6-thiadiazinane-3-carboxamide 1,1-dioxide] | < 1000 nM
CN1C(C(=O)Nc2ccc(F)c(Cl)c2)CC(c2ncc(-c3ccc(Br)c(F)c3)s2)NS1(=O)=O (racemic) [HBV-CSU-173, Cis-5-(5-(4-Bromo-3-fluorophenyl)thiazol-2-yl)-N-(3-chloro-4-fluorophenyl)-2-methyl-1,2,6-thiadiazinane-3-carboxamide 1,1-dioxide] | < 1000 nM
